From PubChem BioAssay (NCI) come the findings set out here.

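Growth conditions: 96-well plates. Treatment: test compound, 48 hours, 5 concentrations. Analysis: linear interpolation between bracketing concentrations; unreached endpoints set to highest concentration. GI50 is the concentration that inhibits growth by half. TGI: concentration producing complete growth inhibition.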

Experiment in all cases: NCI-60 cell line screen, 48 h
The subject of assay [1] is LOX IMVI melanoma.
The test system of assay [2] is MDA-MB-435.
Assay [3] has as its system PC-3 prostate.
Assay [4] deals with CCRF-CEM leukemia.
Assay [5] has as its system UACC-257 melanoma.
In assay [6] the test system is EKVX NSCLC.
The subject of assay [7] is NCI-H226 lung.
Assay [8] has as its system RPMI-8226 leukemia.
The test system of assay [9] is SF-268 CNS.
Assay [10] has as its system OVCAR-8 ovarian.

In the case of `CC[C@@]1(N(C)C)C(=O)OCc2c1cc1n(c2=O)Cc2cc3ccccc3nc2-1`, the TGI in assay [1] was 33.5 µM; in assay [2] it was greater than 100 µM; in assay [3] it was greater than 100 µM; in assay [4] it was 96.3 µM; in assay [5], greater than 100 µM; in [6] it was greater than 100 µM. The TGI is 90.1 µM in [7], greater than 100 µM in assay [8], 36.7 µM in [9] and 31.2 µM in assay [10].

As for `O=C(Nc1cccc(-n2ccc3c(NC(=O)c4ccccc4)nccc32)c1)c1ccc(N2CCOCC2)c(C(F)(F)F)c1`, the GI50 in [1] was 0.0427 µM; in assay [2], 0.0191 µM; in [3], 0.0538 µM; in assay [4] it was 0.0618 µM; in assay [5] it was 2.36 µM; in assay [6] it was 0.212 µM. Further, the GI50 in [7] was 0.0827 µM; in assay [8], 0.0545 µM; in assay [9], 0.0625 µM; in [10], 0.055 µM. The TGI in assay [1] was greater than 100 µM; in assay [2], 0.046 µM; in assay [3], greater than 100 µM; in assay [4], greater than 100 µM; in [5], greater than 100 µM; in assay [6], greater than 100 µM. The TGI was greater than 92.9 µM in [7], 13.1 µM in [8], greater than 100 µM in assay [9] and greater than 100 µM in assay [10].

On to `CC(=O)ON(C(C)=O)c1ccc(-c2nc3ccccc3s2)cc1`, for which the TGI is greater than 66.7 µM in [1]; greater than 60.3 µM in assay [2]; greater than 100 µM in [3]; greater than 100 µM in assay [4]; greater than 83.5 µM in [5]; 65.2 µM in [6]. Moreover, the TGI was 27.7 µM in assay [7], 55.4 µM in assay [8], greater than 100 µM in [9] and greater than 58 µM in [10].

Turning to `Cc1c(NC(=S)NN)c(=O)n(-c2ccccc2)n1C`, the TGI in assay [1], in assay [2], in assay [3], in assay [4], in assay [5] and in assay [6] was greater than 100 µM each time. For the same molecule, the TGI in [7], in assay [8], in assay [9] and in assay [10] was greater than 100 µM in each case.

As for `O=c1c2cc(-c3ccccc3)sc2nc2n1N=C(c1ccccc1)CS2`, the TGI in assay [1] is greater than 100 µM; in assay [2], greater than 100 µM; in assay [3] it was greater than 100 µM; in [4], greater than 100 µM; in assay [5], 91.5 µM; in assay [6], greater than 100 µM. Besides, the TGI in [7], in [8], in assay [9] and in [10] was greater than 100 µM in each case.

`CC(C)(C)OC(=O)NCCCCC(N)C(N)=O` (stereo not given): the TGI in assay [1], in assay [2], in assay [3], in [4], in [5] and in assay [6] was greater than 100 µM in each case. For the same molecule, the TGI in assay [7], in assay [8], in assay [9] and in assay [10] was greater than 100 µM in each case.

For `COc1cc2c(/C=C3/C(=O)N(C)c4ccccc43)c(Cl)[nH]c2cc1C`, the TGI was 11.4 µM in assay [1]; 0.038 µM in [2]; 13 µM in assay [3]; greater than 26.8 µM in assay [4]; 97.6 µM in assay [5]; greater than 47.2 µM in assay [6]. Moreover, the TGI was greater than 100 µM in assay [7], 7.79 µM in [8], 3.09 µM in [9] and 3.77 µM in assay [10].

Take `CC1(C)CC(=O)C(CCC(=O)/C=C/c2ccccc2)C(=O)C1`: the TGI in [1], in [2], in assay [3], in assay [4], in [5] and in assay [6] was greater than 100 µM each time. In addition, the TGI in assay [7], in assay [8], in [9] and in assay [10] was greater than 100 µM each time.

With `N#Cc1c(N2CCCC2)nsc1NCc1ccccc1`, the TGI in assay [1], in assay [2], in assay [3], in assay [4], in assay [5] and in assay [6] was greater than 100 µM in each case. The TGI in assay [7], in assay [8], in assay [9] and in assay [10] was greater than 100 µM in each case.

As to `CCC(C#N)(c1ccccc1)N(CCc1ccccc1)C(=O)c1ccccc1` (stereo not given), the TGI in assay [1], in assay [2], in assay [3], in assay [4], in assay [5] and in assay [6] was greater than 100 µM each time. Moreover, the TGI in [7] was 39.7 µM; in assay [8], greater than 100 µM; in [9], greater than 100 µM; in [10] it was 54.2 µM.

In the case of `O=P1(C(O)/C=C/c2ccccc2)N(Cc2ccccc2)[C@H](c2ccccc2)[C@@H](c2ccccc2)N1Cc1ccccc1` (stereo not given in full), the TGI was greater than 72.5 µM in [1]; greater than 93.3 µM in assay [2]; greater than 94.7 µM in assay [3]; greater than 92.6 µM in assay [4]; 57.6 µM in assay [5]; greater than 96.1 µM in assay [6]. Also, the TGI in [7] was greater than 100 µM; in assay [8] it was 30.1 µM; in assay [9] it was greater than 100 µM; in [10], greater than 55.1 µM.

As for `CC(=N\N)/C(C)=N/N=C(C)/C(C)=N/N=C(C)/C(C)=N/N=C(C)/C(C)=N/N`, the TGI in [1], in assay [2], in [3], in [4], in assay [5] and in assay [6] was greater than 100 µM throughout. For the same molecule, the TGI in assay [7], in assay [8], in [9] and in [10] was greater than 100 µM each time.

For the molecule `Nc1sc2c(c1C(=O)c1ccc(Cl)c(Cl)c1)CCCC2`, the TGI in [1], in assay [2], in assay [3], in assay [4], in assay [5] and in [6] was greater than 100 µM each time. The TGI is greater than 100 µM in assay [7], 78.1 µM in [8], greater than 100 µM in [9] and greater than 100 µM in [10].

With `NNC(=O)CSc1nc2ccc(I)cc2c(=O)n1Cc1ccccc1`, the TGI in assay [1] is greater than 100 µM; in assay [2], greater than 100 µM; in assay [3], 69.3 µM; in [4], 19 µM; in assay [5], 44 µM; in [6], 33.2 µM. Also, the TGI in [7] is 41.9 µM; in [8], 54.7 µM; in assay [9] it was 41.3 µM; in assay [10] it was greater than 100 µM.

As to `COC(=O)CCc1cc(OC)c(O)c(C(Cc2ccc(OC)c(OC)c2)C(=O)OC)c1` (stereo not given), the TGI in [1], in [2], in assay [3], in [4], in assay [5] and in assay [6] was greater than 100 µM each time. In addition, the TGI in [7], in assay [8], in [9] and in [10] was greater than 100 µM throughout.

On to `Cc1c(C#N)c2nnn(-c3ccc(Cl)cc3)c(=O)n2c1-c1ccccc1`, for which the TGI in assay [1] is 12.9 µM; in assay [2] it was 0.154 µM; in assay [3], 9.12 µM; in assay [4] it was greater than 100 µM; in assay [5], 33.6 µM; in assay [6], 31.3 µM. Besides, the TGI in [7] is 2.02 µM; in assay [8], greater than 30.6 µM; in [9], 14.8 µM; in assay [10], 11.2 µM.

For `NC(=O)c1nnc2ccc(F)cc2c1N`, the TGI in [1], in assay [2], in assay [3], in assay [4], in [5] and in assay [6] was greater than 100 µM each time. For the same molecule, the TGI in assay [7] is 73.5 µM; in assay [8] it was greater than 100 µM; in assay [9], greater than 100 µM; in assay [10], greater than 100 µM.

As to `CCCCCC(C)(C)CCC(=O)OC1OC(COC2OC(COC3OC(CO)C(O)C(O)C3O)C(O)C(O)C2O)C(O)C(O)C1O` (stereo not given), the TGI in assay [1], in assay [2], in assay [3], in [4], in assay [5] and in assay [6] was greater than 100 µM throughout. Besides, the TGI in assay [7], in [8], in assay [9] and in assay [10] was greater than 100 µM throughout.

As to `O=c1cc(NCCCCCO)[nH]c(=O)[nH]1`, the TGI in [1], in assay [2], in assay [3], in [4], in [5] and in assay [6] was greater than 100 µM throughout. Moreover, the TGI in assay [7], in [8], in [9] and in [10] was greater than 100 µM in each case.
